Measured values from BindingDB's records for doi:10.1021/jm040190e (National Institute On Drug Abuse-Intramural Research Program, 2005).

Assay: Mitogenic stimulation or antagonism of 30 nM quinpirole-stimulated mitogenesis in CHO cells expressing human dopamine D3 receptor

Compound | IC50
O=C(NC/C=C/CN1CCN(c2cccc(Cl)c2Cl)CC1)c1ccc2c(c1)Cc1ccccc1-2 [N-(4-(4-(2,3-dichlorophenyl)piperazin-1-yl)but-2-enyl)-9H-fluorene-2-carboxamide] | 173 nM
O=C(NCCCCN1CCN(c2cccc(Cl)c2Cl)CC1)c1ccc(-c2ccccn2)cc1 [N-{4-[4-(2,3-Dichloro-phenyl)-piperazin-1-yl]-butyl}-4-pyridin-2-yl-benzamide] | 6.31 nM
O=C(NC/C=C/CN1CCN(c2cccc(Cl)c2Cl)CC1)c1ccc(O)cc1 [N-{4-[4-(2,3-Dichloro-phenyl)-piperazin-1-yl]-but-2-enyl}-4-hydroxy-benzamide] | 1 nM
COc1ccc(C(=O)NC/C=C/CN2CCN(c3cccc(Cl)c3Cl)CC2)cc1 [N-{4-[4-(2,3-Dichloro-phenyl)-piperazin-1-yl]-but-2-enyl}-4-methoxy-benzamide] | 4.79 nM
O=C(NC/C=C/CN1CCN(c2cccc(Cl)c2Cl)CC1)c1ccc([N+](=O)[O-])cc1 [N-{(E)-4-[4-(2,3-Dichloro-phenyl)-piperazin-1-yl]-but-2-enyl}-4-nitro-benzamide] | 2.2 nM
O=C(NC/C=C/CN1CCN(c2cccc(Cl)c2Cl)CC1)c1ccc(I)cc1 [N-{4-[4-(2,3-Dichloro-phenyl)-piperazin-1-yl]-but-2-enyl}-4-iodo-benzamide] | 24.1 nM
